Patent publication US20090247646A1, “USE OF RESVERATROL AND DERIVATIVES THEREOF FOR PROMOTING THE WELLNESS STATE IN MAMMALS” (priority 2006, published 2009)

System: gene expression in heart tissue
Test: Genome-wide gene expression in heart tissue of old mice fed a resveratrol-supplemented diet (Affymetrix Mouse Genome 430 2.0 array)
Type: in vivo
[1] = ADP-ribosyltransferase 1, Genebank ID NM_009710
[2] = Bcl2-associated athanogene 3, Genebank ID NM_013863
[3] = DnaJ (Hsp40) homolog, subfamily A, member 3, Genebank ID AK004575
[4] = DnaJ (Hsp40) homolog, subfamily A, member 4, Genebank ID NM_021422
[5] = DnaJ (Hsp40) homolog, subfamily B, member 5, Genebank ID AI664344
[6] = DnaJ (Hsp40) homolog, subfamily B, member 10, Genebank ID NM_020266
[7] = F-box only protein 25, Genebank ID NM_025785
[8] = F-box only protein 32, Genebank ID AF441120
[9] = F-box protein 30, Genebank ID AK006369
[10] = FK506 binding protein 7, Genebank ID NM_010222
[11] = G protein-coupled receptor kinase 5, Genebank ID BC019379
[12] = Hbs1-like (S. cerevisiae), Genebank ID AK012856
[13] = Mus musculus similar to heart alpha-kinase (LOC381181), mRNA, Genebank ID AY044451
[14] = Mus musculus transcribed sequences, Genebank ID AK004331
[15] = No description found, Genebank ID BG976607
[16] = O-linked N-acetylglucosamine (GlcNAc) transferase (UDP-N-acetylglucosamine:polypeptide-N-acetylglucosaminyl transferase), Genebank ID BG065325
[17] = PTEN induced putative kinase 1, Genebank ID AF316872
[18] = Stam binding protein, Genebank ID AK019907
[19] = acid phosphatase 1, soluble, Genebank ID AW554436

SMILES: Oc1ccc(/C=C/c2cc(O)cc(O)c2)cc1 [resveratrol, 3,4′,5-Trihydroxy-trans-stilbene]
- Effect of resveratrol on changeing gene expression from old to young profile (1448825_at pyruvate dehydrogenase kinase, isoenzyme 2): >100%
- Effect of resveratrol on changeing gene expression from old to young profile (1448938_at replication protein A3): >100%
- Effect of resveratrol on changeing gene expression from old to young profile (1449116_a_at deoxythymidylate kinase): >100%
- Effect of resveratrol on changeing gene expression from old to young profile (1449334_at tissue inhibitor of metalloproteinase 3): >100%
- Effect of resveratrol on changeing gene expression from old to young profile (1450008_a_at catenin beta): >100%
- Effect of resveratrol on changeing gene expression from old to young profile (1450048_a_at vacuolar protein sorting 33B (yeast) [BLAST]): >100%
- Effect of resveratrol on changeing gene expression from old to young profile (1450634_at ATPase, H+ transporting, V1 subunit A, isoform 1): >100%
- Effect of resveratrol on changeing gene expression from old to young profile (1450720_at acid phosphatase 1, soluble): >100%
- Effect of resveratrol on changeing gene expression from old to young profile (1450899_at neural precursor cell expressed, developmentally down-regulated gene 1): >100%
- Effect of resveratrol on changeing gene expression from old to young profile (1451012_a_at cold shock domain protein A): >100%
- Effect of resveratrol on changeing gene expression from old to young profile (1451148_at PTEN induced putative kinase 1): >100%
- Effect of resveratrol on changeing gene expression from old to young profile (1451249_at DNA segment, Chr 8, ERATO Doi 812, expressed): >100%
- Effect of resveratrol on changeing gene expression from old to young profile (1452066_a_at Nedd4 family interacting protein 2): >100%
- Effect of resveratrol on changeing gene expression from old to young profile (1452767_at ribosome binding protein 1): >100%
- Effect of resveratrol on changeing gene expression from old to young profile (1452843_at interleukin 6 signal transducer): >100%
- Effect of resveratrol on changeing gene expression from old to young profile (1453124_at transportin 3): >100%
- Effect of resveratrol on changeing gene expression from old to young profile (1453129_a_at regulator of G-protein signaling 12): >100%
- Effect of resveratrol on changeing gene expression from old to young profile (1454811_a_at tumor differentially expressed 2): >100%
- Effect of resveratrol on changeing gene expression from old to young profile (1454837_at ceroid-lipofuscinosis, neuronal 6): >100%
- Effect of resveratrol on changeing gene expression from old to young profile (1454848_at protein phosphatase 1, regulatory (inhibitor) subunit 12C [BLAST]): >100%
- Effect of resveratrol on changeing gene expression from old to young profile (1454974_at syntaxin 8): >100%
- Effect of resveratrol on changeing gene expression from old to young profile (1455182_at kinesin family member 1B): >100%
- Effect of resveratrol on changeing gene expression from old to young profile (1455506_at Mus musculus transcribed sequences): >100%
- Effect of resveratrol on changeing gene expression from old to young profile (1455702_at WD repeat domain 22): >100%
- Effect of resveratrol on changeing gene expression from old to young profile (1460028_at Mus musculus transcribed sequences): >100%
- Effect of resveratrol on changeing gene expression from old to young profile (1460174_at dexamethasone-induced transcript): >100%
- Effect of resveratrol on changeing gene expression from old to young profile (1460199_a_at platelet-activating factor acetylhydrolase, isoform 1b, beta1 subunit): >100%
- % of res effect [1]: 108.0103%
- Median RES [1]: 87939
- % of res effect [2]: 131.9726%
- Median RES [2]: 67398
- % of res effect [3]: 67.85%
- Median RES [3]: 30553
- % of res effect [4]: 61.28%
- Median RES [4]: 20850
- % of res effect [5]: 157.0689%
- Median RES [5]: 17969
- % of res effect [6]: 124.1691%
- Median RES [6]: 29661
- number of genes changed by resveratrol (Effect 60-70%): 39
- number of genes changed by resveratrol (Effect 70-80%): 48
- number of genes changed by resveratrol (Effect 80-90%): 52
- number of genes changed by resveratrol (Effect 90-100%): 62
- number of genes changed by resveratrol (Effect <60%): 44
- number of genes changed by resveratrol (Effect >100% (expression in resveratrol-fed old mice as percentage of untreated young mice)): 340
- % of res effect [7]: 80.27%
- Median RES [7]: 11530
- % of res effect [8]: 104.0857%
- Median RES [8]: 35761
- % of res effect [9]: 58.67%
- Median RES [9]: 6641
- % of res effect [10]: 196.8163%
- Median RES [10]: 33928
- % of res effect [11]: 80.42%
- Median RES [11]: 37493
- % of res effect [12]: 74.36%
- Median RES [12]: 9115
- % of res effect [13]: 190.8585%
- Median RES [13]: 21847
- % of res effect [14]: 105.9%
- Median RES [14]: 38260
- % of res effect [15]: 69.74%
- Median RES [15]: 9370
- % of res effect [16]: 125.3946%
- Median RES [16]: 2989
- % of res effect [17]: 147.4853%
- Median RES [17]: 116921
- % of res effect [18]: 230.3846%
- Median RES [18]: 13590
- number of genes changed by resveratrol (Sum): 585
- % of res effect [19]: 349.7466%
- Median RES [19]: 34652
- number of genes that resembled or exceeded the expression level of the young group (among genes changed by resveratrol treatment, heart): 342
